System: TNF-alpha release in THP-1 cells
Test: LPS-induced TNF-alpha release in THP-1 cells
Assay type: cell-based
Details: Homo sapiens, THP-1, LPS-stimulated THP-1 cells; read-out: 50% inhibition in the LPS-induced TNF-alpha release in THP-1 cells assay at concentrations within the range
Method: The effects of compounds on TNF-alpha production by lipopolysaccharide (LPS)-stimulated […] monocytes were examined as follows.
Undifferentiated THP-1 cells were maintained in RPMI 1640 with Glutamax I containing β-mercaptoethananol (50 μM) and foetal calf serum (FCS-10%) at densities of about 1×10^6 cells per ml. For incubations without and with test reagents, cells were seeded at the indicated densities under serum-deprived (1% FCS) conditions. Compounds were dissolved in dimethylsulfoxide (DMSO-100%) and incubated with the cells to give a fmal DMSO concentration of 0.3%. Control and untreated cell samples were incubated with DMSO (0.3%).
THP-1 cells (1×10 ^6 cells/ml, total volume 150 μl) in culture medium were incubated for 1 hour (5% CO2, 37° C.) with fresh medium containing compounds or vehicle (0.1-0.3% dimethylsulfoxide). LPS (20 μg/ml) was then added to the cells and the incubation continued for a fuirther 18 hours. Cell supernatants were removed into 96 well plates for storage at −20° C.
TNF-alpha concentrations in cell supernatants were quantified by sandwich ELISA. Briefly, ELISA plates were coated overnight with 2 μg/ml of mouse anti-human TNF-alpha antibody in bicarbonate buffer (pH 9.9). After washing the wells with wash buffer (0.05% (v/v) Tween in PBS)and blocking unoccupied sites (1% BSA in wash buffer), monocyte supernatant samples or human recombinant TNF-alpha standards were added into the corresponding wells of the ELISA plate at 1:10 dilution. Biotinylated rabbit polyclonal anti-human TNF-alpha antibody (3 μg/ml) was used as the second antibody and streptavidin-horseradish peroxidase was used as the detection antibody. The peroxidase substrate is 3,3′,5,5′-tetramethylbenzidine (TMB) in the presence of hydrogen peroxide.
TNFα concentrations in supernatants from control and LPS-stimulated monocyte incubations were calculated by interpolation from a standard (log/log) curve (0.125-16 ng/ml) fitted by Excel Fit using the Activity Base software. Compounds were tested within the concentration range of 1×10^−9M to 1×10^−6M.

| SMILES | IC50 [nM] |
| --- | --- |
| Cc1ccc(-n2nc(C(C)(C)C)cc2NC(=O)Nc2cccc(CC3CCN(C(=O)c4ccsc4)CC3)c2)cc1 [Compound A99, 1-(5-tert-Butyl-2-p-tolyl-2H-pyrazol-3-yl)-3-{3-[1-(thiophene-3-carbonyl)-piperidin-4-ylmethyl]-phenyl}-urea] | 10 to 500 |
| Cc1ccc(-n2nc(C(C)(C)C)cc2NC(=O)Nc2cccc(CC3CCN(C(=O)C4=Cc5sccc5CC4)CC3)c2)cc1 [Compound A102, 1-(5-tert-Butyl-2-p-tolyl-2H-pyrazol-3-yl)-3-{3-[1-(4,5-dihydro-benzo[b]thiophene-6-carbonyl)-piperidin-4-ylmethyl]-phenyl}-urea] | 10 to 500 |
| Cc1ccc(-n2nc(C(C)(C)C)cc2NC(=O)Nc2cccc(CC3CCN(C(=O)c4ccc(-c5cnco5)cc4)CC3)c2)cc1 [Compound A106, 1-(5-tert-Butyl-2-p-tolyl-2H-pyrazol-3-yl)-3-{3-[1-(4-oxazol-5-yl-benzoyl)-piperidin-4-ylmethyl]-phenyl}-urea] | 10 to 500 |
| Cc1ccc(-n2nc(C(C)(C)C)cc2NC(=O)Nc2cccc(CC3CCN(C(=O)c4ccc(OC(F)F)cc4)CC3)c2)cc1 [Compound A111, 1-(5-tert-Butyl-2-p-tolyl-2H-pyrazol-3-yl)-3-{3-[1-(4-difluoromethoxy-benzoyl)-piperidin-4-ylmethyl]-phenyl}-urea] | 10 to 500 |
| Cc1ccc(-n2nc(C(C)(C)C)cc2NC(=O)Nc2cccc(CC3CCN(C(=O)c4ccc(N)c(OC(F)(F)F)c4)CC3)c2)cc1 [Compound A114, 1-{3-[1-(4-Amino-3-trifluoromethoxy-benzoyl)-piperidin-4-ylmethyl]-phenyl}-3-(5-tert-butyl-2-p-tolyl-2H-pyrazol-3-yl)-urea] | 10 to 500 |
| Cc1ccc(-n2nc(C(C)(C)C)cc2NC(=O)Nc2cccc(CC3CCN(C(=O)c4ccc(CO)cc4)CC3)c2)cc1 [Compound A118, 1-(5-tert-Butyl-2-p-tolyl-2H-pyrazol-3-yl)-3-{3-[1-(4-hydroxymethyl-benzoyl)-piperidin-4-ylmethyl]-phenyl}-urea] | 10 to 500 |
| COc1ccc(OCC(=O)N2CCC(Cc3cccc(NC(=O)Nc4cc(C(C)(C)C)nn4-c4ccc(C)cc4)c3)CC2)cc1 [Compound A121, 1-(5-tert-Butyl-2-p-tolyl-2H-pyrazol-3-yl)-3-(3-{1-[2-(4-methoxy-phenoxy)-acetyl]-piperidin-4-ylmethyl}-phenyl)-urea] | 10 to 500 |
| COc1ccc(CC(=O)N2CCC(Cc3cccc(NC(=O)Nc4cc(C(C)(C)C)nn4-c4ccc(C)cc4)c3)CC2)cc1 [Compound A122, 1-(5-tert-Butyl-2-p-tolyl-2H-pyrazol-3-yl)-3-(3-{1-[2-(4-methoxy-phenyl)-acetyl]-piperidin-4-ylmethyl}-phenyl)-urea] | 10 to 500 |
| Cc1ccc(-n2nc(C(C)(C)C)cc2NC(=O)Nc2cccc(CC3CCN(C(=O)c4cnccc4C(F)(F)F)CC3)c2)cc1 [Compound A126, 1-(5-tert-Butyl-2-p-tolyl-2H-pyrazol-3-yl)-3-{3-[1-(4-trifluoromethyl-pyridine-3-carbonyl)-piperidin-4-ylmethyl]-phenyl}-urea] | 10 to 500 |
| Cc1ccc(-n2nc(C(C)(C)C)cc2NC(=O)Nc2cccc(CC3CCN(C(=O)c4ccc(Cl)s4)CC3)c2)cc1 [Compound A131, 1-(5-tert-Butyl-2-p-tolyl-2H-pyrazol-3-yl)-3-{3-[1-(5-chloro-thiophene-2-carbonyl)-piperidin-4-ylmethyl]-phenyl}-urea] | 10 to 500 |
| COc1ccc(OCC(F)(F)F)c(C(=O)N2CCC(Cc3cccc(NC(=O)Nc4cc(C(C)(C)C)nn4-c4ccc(C)cc4)c3)CC2)c1 [Compound A132, 1-(5-tert-Butyl-2-p-tolyl-2H-pyrazol-3-yl)-3-(3-{1-[5-methoxy-2-(2,2,2-trifluoro-ethoxy)-benzoyl]-piperidin-4-ylmethyl}-phenyl)-urea] | 10 to 500 |
| Cc1ccc(-n2nc(C(C)(C)C)cc2NC(=O)Nc2cccc(CC3CCN(C(=O)c4cnc(C)cn4)CC3)c2)cc1 [Compound A140, 1-(5-tert-Butyl-2-p-tolyl-2H-pyrazol-3-yl)-3-{3-[1-(5-methyl-pyrazine-2-carbonyl)-piperidin-4-ylmethyl]-phenyl}-urea] | 10 to 500 |
| Cc1ccc(-n2nc(C(C)(C)C)cc2NC(=O)Nc2cccc(CC3CCN(C(=O)c4ccc(N)nc4)CC3)c2)cc1 [Compound A144, 1-{3-[1-(6-Amino-pyridine-3-carbonyl)-piperidin-4-ylmethyl]-phenyl}-3-(5-tert-butyl-2-p-tolyl-2H-pyrazol-3-yl)-urea] | 10 to 500 |
| Cc1ccc(-n2nc(C(C)(C)C)cc2NC(=O)Nc2cccc(CC3CCN(C(=O)c4cccc(C)n4)CC3)c2)cc1 [Compound A146, 1-(5-tert-Butyl-2-p-tolyl-2H-pyrazol-3-yl)-3-{3-[1-(6-methyl-pyridine-2-carbonyl)-piperidin-4-ylmethyl]-phenyl}-urea] | 10 to 500 |
| CC(=O)OCc1ccc(C(=O)N2CCC(Cc3cccc(NC(=O)Nc4cc(C(C)(C)C)nn4-c4ccc(C)cc4)c3)CC2)cc1 [Compound A148, Acetic acid 4-(4-{3-[3-(5-tert-butyl-2-p-tolyl-2H-pyrazol-3-yl)-ureido]-benzyl}-piperidine-1-carbonyl)-benzyl ester] | 10 to 500 |
| Cc1ccc(-n2nc(C(C)(C)C)cc2NC(=O)Nc2cccc(CC3CCN(C(=O)c4ccc5ncsc5c4)CC3)c2)cc1 [Compound A150, 1-{3-[1-(Benzothiazole-6-carbonyl)-piperidin-4-ylmethyl]-phenyl}-3-(5-tert-butyl-2-p-tolyl-2H-pyrazol-3-yl)-urea] | 10 to 500 |
| Cc1ccc(-n2nc(C(C)(C)C)cc2NC(=O)Nc2cccc(CC3CCN(C(=O)c4coc5c4C(=O)CCC5)CC3)c2)cc1 [Compound A154, 1-(5-tert-Butyl-2-p-tolyl-2H-pyrazol-3-yl)-3-{3-[1-(4-oxo-4,5,6,7-tetrahydro-benzofuran-3-carbonyl)-piperidin-4-ylmethyl]-phenyl}-urea] | 10 to 500 |
| Cc1ccc(-n2nc(C(C)(C)C)cc2NC(=O)Nc2cccc(CC3CCN(C(=O)c4n[nH]c5ccccc45)CC3)c2)cc1 [Compound A167, 1-(5-tert-Butyl-2-p-tolyl-2H-pyrazol-3-yl)-3-{3-[1-(1H-indazole-3-carbonyl)-piperidin-4-ylmethyl]-phenyl}-urea] | 10 to 500 |
| Cc1ccc(-n2nc(C(C)(C)C)cc2NC(=O)Nc2cccc(CC3CCN(C(=O)Cc4c[nH]c5ccccc45)CC3)c2)cc1 [Compound A168, 1-(5-tert-Butyl-2-p-tolyl-2H-pyrazol-3-yl)-3-{3-[1-(2-1H-indol-3-yl-acetyl)-piperidin-4-ylmethyl]-phenyl}-urea] | 10 to 500 |
| Cc1ccc(-n2nc(C(C)(C)C)cc2NC(=O)Nc2cccc(CC3CCN(C(=O)Cc4ccccc4C)CC3)c2)cc1 [Compound A182, 1-(5-tert-Butyl-2-p-tolyl-2H-pyrazol-3-yl)-3-{3-[1-(2-o-tolyl-acetyl)-piperidin-4-ylmethyl]-phenyl}-urea] | 10 to 500 |
| Cc1ccc(-n2nc(C(C)(C)C)cc2NC(=O)Nc2cccc(CC3CCN(C(=O)c4ccc5ccccc5n4)CC3)c2)cc1 [Compound A184, 1-(5-tert-Butyl-2-p-tolyl-2H-pyrazol-3-yl)-3-{3-[1-(quinoline-2-carbonyl)-piperidin-4-ylmethyl]-phenyl}-urea] | 10 to 500 |
| Cc1ccc(-n2nc(C(C)(C)C)cc2NC(=O)Nc2cccc(CC3CCN(C(=O)c4ccnc5ccccc45)CC3)c2)cc1 [Compound A186, 1-(5-tert-Butyl-2-p-tolyl-2H-pyrazol-3-yl)-3-{3-[1-(quinoline-4-carbonyl)-piperidin-4-ylmethyl]-phenyl}-urea] | 10 to 500 |
| Cc1ccc(-n2nc(C(C)(C)C)cc2NC(=O)Nc2cccc(CC3CCN(C(=O)Cc4cccs4)CC3)c2)cc1 [Compound A189, 1-(5-tert-Butyl-2-p-tolyl-2H-pyrazol-3-yl)-3-{3-[1-(2-thiophen-2-yl-acetyl)-piperidin-4-ylmethyl]-phenyl}-urea] | 10 to 500 |
| Cc1ccc(-n2nc(C(C)(C)C)cc2NC(=O)Nc2cccc(CC3CCN(C(=O)Cc4ccsc4)CC3)c2)cc1 [Compound A190, 1-(5-tert-Butyl-2-p-tolyl-2H-pyrazol-3-yl)-3-{3-[1-(2-thiophen-3-yl-acetyl)-piperidin-4-ylmethyl]-phenyl}-urea] | 10 to 500 |
| CO[C@H](C(=O)N1CCC(Cc2ccc(NC(=O)Nc3cc(C(C)(C)C)nn3-c3ccc(C)cc3)cc2)CC1)c1ccccc1 [Compound A193, 1-(5-tert-Butyl-2-p-tolyl-2H-pyrazol-3-yl)-3-{4-[1-((S)-2-methoxy-2-phenyl-acetyl)-piperidin-4-ylmethyl]-phenyl}-urea] | 10 to 500 |
| Cc1ccc(-n2nc(C(C)(C)C)cc2NC(=O)Nc2ccc(CC3CCN(C(=O)c4csnn4)CC3)cc2)cc1 [Compound A196, 1-(5-tert-Butyl-2-p-tolyl-2H-pyrazol-3-yl)-3-{4-[1-([1,2,3]thiadiazole-4-carbonyl)-piperidin-4-ylmethyl]-phenyl}-urea] | 10 to 500 |

Source: US7541368B2, “Pyrazoles as inhibitors of tumor necrosis factor” (Aventis Pharmaceuticals Inc., priority 2003, dated 2009)
